Residues, ends and D or L forms follow the SMILES beside them. *: point of attachment. Cbz = O=C(OCc1ccccc1)*; CH2F = FC*
How the values were obtained:
[1] = test system: SH-EP neuroblastoma cells; test: Mitochondrial potential (DiOC6(3)), ROS (HE) and lipid peroxidation (NAO) by flow cytometry; type: cell-based, human; details: FIG. 12B
Protocol: The cationic lipophilic fluorochrome DiOC6(3)(460 ng/ml, Molecular Probes, Eugene, Oreg.) was used to measure the Δ¥m. HE(126 ng/ml. Molecular probes) was used to determine ROS generation, and NAO (94 ng/ml, Molecular Probes) was used to determine lipid peroxidation. Kroemer et al, 1997, Immunol. Today. 18:44-51. Cells were incubated for 12 min at 37° C. in the presence of the fluorochromes, washed in PBS/1% FCS, and immediately analyzed by flow cytometry (FACScan, Becton Dickinson). DiOC6(3) and NAO fluorescence were recorded in fluorescence 1; He fluorescence was assessed in fluorescence 3. The percentage of cells with low mitochondrial potential or enhanced ROS production was calculated in comparison to untreated control cells.
SH-EP neuroblastoma cells were treated with 10 μg/ml betulinic acid for the indicated times. Cells were stained with the fluorochrome DiOC6(3) to determine ΔΨm and with HE to determine ROS generation and analyzed by flow cytometry. Fold increase in cells with low ΔΨm [DiOC6(3)^low] or with enhanced ROS production (HE+) is shown.
SH-EP neuroblastoma cells treated with 10 μg/ml […] for 24 h (heavy line) or control cells (thin line) were strained with NAO to assess oxidized cardiolipin and analyzed by flow cytomety.
For determination of mitochondrial membrane potential, cells (5×10^5/ml) were incubated with 3,3′-dihexyloxacarbocyanide iodide (DiOC6(3), 40 nM, Molecular Probes, Inc., Eugene, Oreg.) for 15 min at 37° C. and analyzed on a flow cytometer (FACScan) (Zamzarni et al., 1996 J. Exp. Med. 183:1533-44). For cell sorting, cells were stained with DiOC6(3) and sorted into DiOC6(3)^high and DiOC6(3)^low cells on a cytofluorometer (FACS Vantage, Becton Dickinson). As a control, cells were treated with the uncoupling agent carbonyl cyanide m-chlorophenylhydrazone (mCICCP, 200 μM, Sigma).
(§1) SHEP cells transfected with Bcl-2 or BCl-XL or a neomycin resistance vector only (Neo) were treated with 0.5 μg/ml Doxorubicin or 10 μg/ml Betulinic acid for 48 h (A) or 24 h (B and C). Cells transfected with a neomycin resistance vector only (Neo) were treated in the presence or absence of 50 μm BA or 60 μm zVAD-fmk. Nuclear apoptosis was determined by FACS analysis or propidium iodide-stained DNA content in intact cells (A) or in a CFS incubating isolated nuclei with mitochondria from cells treated with Doxo or betulinic acid (C). ΔΨm was determined by staining cells with the potential-sensitive fluorochrome DiOC6(3) (B).

[2] = test system: isolated nuclei with mitochondria from SHEP cells; test: Cell-free system of apoptosis: nuclear fragmentation of isolated nuclei; type: biochemical, human; details: for effect of inhibitor on betulinic acid-induced fragmentation of nuclei / effect of inhibitor on nuclear fragmentation by mitochondria from drug-pretreated cells / effect of inhibitor on DNA fragmentation by supernatants from betulinic acid-treated mitochondria: 50 μM bongkrekic acid or 60 μM zVAD-fmk; for effect of inhibitor on DNA fragmentation by supernatants from betulinic acid-treated mitochondria: FIG. 10B
Protocol: (§2) For determination of nuclear fragmentation, nuclei (10^3/μl) were incubated with mitochondria (1 μg/μl) in buffer D (10 mM HEPES, pH 7.4, 50 mM NaCl, 2 mM MgCl2, 5 mM EGTA, 1 mM DDT, 2 mM ATP, 10 mM phosphocreatine, 50 μg/ml creatine kinase, 10 μM cytochalasin B) for 2 h at 37° C. Nuclei were stained with propidium iodide ([…]) and analyzed by flow cytometry. For determination of caspase activation, cytosolic extracts (2 μg/μl) were incubated with mitochondria (1 μg/μl), cytochrome c (0.1-100 μM) or AIF-containing mitochondrial supernatant (0.5 μg/μl) in buffer D for 2 h at 37° C. Partially purified AIF (cytochrome c-free) was prepared as previously described (0.5 mg/ml, Susin et al., 1997, J. Exp. Med. 186, 5-37; Susin et al., 1996, J. Exp. Med. 184, 1331-41). Proteins were separated by 15% SDS-PAGE and Western blot analysis was performed as described above.
Mitochondria isolated from SHEP cells, transfected with bcl-2 or bcl-XL or a neomycin resistance vector only, were incubated for 6 h with nuclei and 0.1-10 μg/ml betulinic acid (FIG. 8A) or 5 mM atractyloside (FIG. 8B) in the presence or absence of 50 μM bongkrekic acid or 60 μMZ-VAD-fnk. Nuclei incubated with either mitochondria from vector only cells or with betulinic acid were used as control. Nuclear apoptosis was determined by FACS analysis of propidium iodide stained DNA content.
SHEP cells transfected with bcl-2 or bcl-XL or a neomycin resistance vector only were treated with 10 μg/ml betulinic acid or 5 mM atractyloside for 6-24 h (FIG. 8C). Mitochondria were isolated and incubated with nuclei in the presence or absence of 50 μM bongkrekic acid or 60 μMZ-VAD-fmk. Nuclei incubated with either mitochondria front vector only cells or with betulinic acid were used as control. Nuclear apoptosis was determined by FACS analysis of propidium iodide stained DNA content.
Mitochondria isolated from SHEP cells transfected with bcl-2, Bcl-XL or a neomycin resistance vector only were treated with 10 μg/ml betulinic acid or 5 mM atractyloside for 0.5 h in the presence or absence of 50 μM bongkrekic acid or 60 μM zVAD-fmk. Mitochondrial supernatants obtained by high speed centrifugation were incubated with nuclei for 2 h at 37° C. Nuclei incubated with supernatants of untreated mitochondria were used as control.. Nuclear apoptosis was determined by FACS analysis of propidium iodide stained DNA content.
as §2, with “cytometry (Susin et al., 1997 Exp. Cell Res. 236:397-403).” for “cytometry.”, “(10” for “(0.1-100”, “C.” for “C. Partially purified AIF (cytochrome c-free) was prepared as previously described (0.5 mg/ml, Susin et al., 1997, J. Exp. Med. 186, 5-37; Susin et al., 1996, J. Exp. Med. 184, 1331-41).”, “before.” for “above.”
as §1

SMILES | effect of inhibitor on betulinic acid-induced ΔΨm dissipation ([1]; 60 μM zVAD-fmk) | effect of inhibitor on doxorubicin-induced loss of ΔΨm ([1]; 60 μM zVAD-fmk) | effect of inhibitor on betulinic acid-induced fragmentation of nuclei ([2]; FIG. 8A) | effect of inhibitor on nuclear fragmentation by mitochondria from drug-pretreated cells ([2]; FIG. 8C, 12C) | effect of inhibitor on DNA fragmentation by supernatants from betulinic acid-treated mitochondria [2] | loss of ΔΨm in intact SHEP cells ([1]; 0.5 μg/ml doxorubicin or 10 μg/ml betulinic acid, 24 h) | nuclear fragmentation by mitochondria isolated from drug-pretreated cells ([2]; 10 μg/ml betulinic acid or 0.5 μg/ml doxorubicin, FIG. 8C, 12C) | nuclear DNA fragmentation, mitochondria plus nuclei plus drug ([2]; Neo control mitochondria, 0.1-10 μg/ml betulinic acid or 5 mM atractyloside, 6 h, FIG. 8A, 8B) | effect of inhibitor on drug-triggered ΔΨm loss ([1]; 50 μM bongkrekic acid, doxorubicin or betulinic acid)
COC(=O)C[C@H](NC(=O)[C@H](C)NC(=O)[C@@H](NC(=O)OCc1ccccc1)C(C)C)C(=O)CF [zVAD-fmk, benzyloxycarbonyl-Val-Ala-Asp-Fluoromethylketone] (Cbz-Val-Ala-Asp(OMe)-CH2F) | had no effect | both inhibited | inhibited | again blocked | also blocked |  |  |  | 
COc1cccc2c1C(=O)c1c(O)c3c(c(O)c1C2=O)C[C@@](O)(C(=O)CO)C[C@@H]3O[C@H]1C[C@H](N)[C@H](O)[C@H](C)O1 [doxorubicin] |  |  |  |  |  | induced loss of ΔΨm and nuclear fragmentation | induced nuclear DNA fragmentation | No DNA fragmentation was observed | 
CO[C@H](C/C=C\C=C\CC/C=C/C[C@H](C)/C=C/C(=C\C(=O)O)CC(=O)O)/C(C)=C\C=C(/C)C(=O)O [bongkrekic acid] |  |  | inhibited | again blocked | also blocked |  |  |  | inhibited drug-triggered nuclear fragmentation and ΔΨm loss
